Laboratory results published in patent US20060172958A1, “Phospholipid scramblase 3” (priority 2003, published 2006).

Key:
HeLa-PLS3 cells = experiment: TUNEL apoptosis assay with flow cytometry; format: cell-based; details: 200 nM PMA, 2 hours
Method: (§1) Apoptotic assays were performed with annexinV-PE (BD-PharMingen) per manufacturer's protocol. The TUNEL assay (terminal deoxynucleotidyltransferase-mediated dUTP-biotin nick end labeling) was performed according to the manufacturer's protocol (Roche, Switzerland).
(§2) If PLS3 is a direct downstream effector of PKC-δ in the PKC-δ-induced apoptotic pathway, then overexpression of PLS3 might enhance apoptosis induced by PKC-δ activation. HeLa-PLS3 were incubated with phorbol ester PMA, and analyzed for apoptosis with TUNEL assay and flow cytometry.

HeLa-control cells = experiment: TUNEL apoptosis assay with flow cytometry; format: cell-based; details: 200 nM PMA, 2 hours
Method: as §1, §2

HEK293 cells = experiment: UV-induced cytochrome c release, subcellular fractionation and Western blot; format: cell-based
Method: Subcellular fractionation was performed by differential centrifugation. In brief, […] were incubated in buffer containing 300 mM sucrose, 10 mM Tris (pH 7.5), 5 mM EDTA, 0.1% BSA and 1 mM PMSF protease inhibitor for 5 min on ice. Cells were disrupted by passage through a 25 G needle or dounced for 10 strokes, and then were centrifuged at 1000×g for 5 minutes, 10,000×g for 10 minutes, and 30,000×g for 60 minutes, for collection of intact cells/nuclei, crude mitochondria and microsomes, respectively. The final supernatants were used as cytosols. The mitochondria and the cytosolic fractions were analyzed for cytochrome c release with Western blot.
The kinase that phosphorylates PLS3 was then sought. Based on the observation that PLS1 is phosphorylated by […], we studied whether PLS3 is the mitochondrial substrate of PKC-δ. It was first reconfirmed that PKC-δ is essential for UV-induced apoptosis by blocking PKC-δ with a PKC-δ inhibitor, rottlerin, in our system. The HEK293 cells were fractionated and the isolated mitochondria and cytosols were analyzed for cytochrome c release by Western blot. This study confirmed that cytochrome c was released to cytosol after UV irradiation, and this release was inhibited by rottlerin (FIG. 20b). […]

mouse liver mitochondria = experiment: Cardiolipin transfer assay (NAO fluorescence); format: biochemical; details: 30 μM NAO, vs buffer or BSA control
From the text: Cardiolipin was then investigated since cardiolipin is a mitochondrion-specific phospholipid and is potentially more critical in the process of apoptosis. Because radioactive cardiolipin is not commercially available, NAO was used to quantify cardiolipin in the recipient mitochondria. NAO binds cardiolipin specifically without interference by other phospholipids with a stoichiometry of 1 to 1 or 2 to 1. To achieve maximal NAO saturation, the recipient mitochondria were permeablized and fixed with formaldehyde. A dose titration of NAO was then performed. The red fluorescence achieved a plateau when the NAO concentrations were above 20 μM as reported (Garcia Fernandez et al. 2000). The concentration of 30 μM was thus chosen to determine the total amount of cardiolipin after in vitro cardiolipin transfer assay. […]
Phospholipid transfer assay was modified from Koumanov et al. (Koumanov and Infante 1986). […] Mitochondria were then washed five times with mitochondrial preparation buffer to remove free liposomes and counted by scintillation counter for ^14C activity. For cardiolipin transfer assays, total amounts of cardiolipin were quantified by specific fluorescence with NAO dye. NAO (30 μM) was added to recipient mitochondria, and fluorescence intensity was measured at 590±35 nm by fluorescence microplate reader.

293-vector cells = experiment: Mitochondrial potential by Rhodamine 123 flow cytometry; format: cell-based; details: antimycin A for 6 h
Method: FIG. 14. Overexpression of mutant PLS3 reduces mitochondrial mass, potential, and cytochrome c and CL content. […] C. […] The blot was re-probed with antibodies to VDAC and tubulin for controls. […] Error bars, SDs from five independent measurements. E. Quantitative PCR analysis of mitochondrial NADH dehydrogenase in 400 ng of whole cell genomic DNA. […] The crossing points (in cycle numbers) of the three cells are indicated.

Compound: CCCCCCCCCCCCCC(=O)O[C@@H]1[C@@H](C)[C@@]2(O)[C@@H](C=C(CO)C[C@]3(O)C(=O)C(C)=C[C@@H]23)[C@@H]2C(C)(C)[C@]12OC(C)=O [PMA]
- apoptosis (TUNEL) (HeLa-PLS3 cells): shifted the curve to right
- apoptosis (TUNEL) (HeLa-control cells): did not induce any apoptosis

Compound: CC(=O)c1c(O)c(C)c(O)c(Cc2c(O)c3c(c(C(=O)/C=C/c4ccccc4)c2O)OC(C)(C)C=C3)c1O [rottlerin]
- amount of PKC-δ translocated to mitochondria (HEK293 cells; UV plus rottlerin, washed mitochondria, 100 nM PMA, cytochrome c release): decreased
- cytochrome c release to cytosol after UV irradiation (HEK293 cells; rottlerin 10 μM, harvested 4 hours after UV): inhibited

Compound: PLS3: Recombinant phospholipid scramblase 3 protein; purified PLS3β in transfer assay, His-tagged PLS3 in kinase assay
- increase of total amount of cardiolipin in recipient mitochondria (mouse liver mitochondria): 35%

Compound: antimycin A
- mitochondrial potential (Rhodamine 123) (293-vector cells): decrease of mitochondrial potential
